Laboratory results reported in patent US7507727B2, “Substituted quinobenzoxazine analogs and methods of using thereof” (Cylene Pharmaceuticals, Inc., priority 2003, dated 2009).
pIC50: −log10 of the molar value. Entries after “also recorded” stand apart in the source; their conditions may differ.

Assays:
[1] = molecular target: CYP1A2 (Homo sapiens, UniProt P05177); test: Cytochrome P450 inhibition assay; assay type: in vitro ADME
Experimental: (§1) Cytochrome P450 (CYP450) Inhibition Assay. […] The reactions were initiated by adding 100 μL of a pre-warmed enzyme/substrate solution to the reaction tubes. A zero time-point control reaction was prepared by adding 50 μL of acetonitrile to 100 μL of cofactor solution to inactivate the enzymes, then adding 100 μL of enzyme/substrate solution. A control reaction with no inhibitor was also prepared. After a suitable incubation at 37° C., the reactions were terminated by the addition of 50 μL of acetonitrile. The reactions were analyzed for the metabolite forms of the probe substrate using LC/MS/MS. Each assay was performed in duplicate.

[2] = molecular target: CYP2C19 (Homo sapiens, UniProt P33261); test: Cytochrome P450 inhibition assay; assay type: in vitro ADME
CYP2C19, sequence (P33261 whole entry): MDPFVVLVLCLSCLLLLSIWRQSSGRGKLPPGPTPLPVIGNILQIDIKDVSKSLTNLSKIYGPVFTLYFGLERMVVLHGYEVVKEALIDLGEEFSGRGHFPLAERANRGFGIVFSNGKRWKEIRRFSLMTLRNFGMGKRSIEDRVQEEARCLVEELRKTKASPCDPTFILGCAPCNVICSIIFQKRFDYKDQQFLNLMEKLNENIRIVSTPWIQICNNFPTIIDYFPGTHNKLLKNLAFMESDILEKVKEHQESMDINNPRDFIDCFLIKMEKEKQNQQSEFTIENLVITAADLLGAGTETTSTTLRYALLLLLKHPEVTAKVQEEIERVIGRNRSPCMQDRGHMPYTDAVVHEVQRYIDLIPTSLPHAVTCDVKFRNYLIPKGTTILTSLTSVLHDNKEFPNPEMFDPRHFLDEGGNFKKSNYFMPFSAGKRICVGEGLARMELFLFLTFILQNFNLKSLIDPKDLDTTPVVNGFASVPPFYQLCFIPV
Experimental: as §1

[3] = molecular target: CYP2C9 (Homo sapiens, UniProt P11712); test: Cytochrome P450 inhibition assay; assay type: in vitro ADME
CYP2C9, sequence (P11712 whole entry): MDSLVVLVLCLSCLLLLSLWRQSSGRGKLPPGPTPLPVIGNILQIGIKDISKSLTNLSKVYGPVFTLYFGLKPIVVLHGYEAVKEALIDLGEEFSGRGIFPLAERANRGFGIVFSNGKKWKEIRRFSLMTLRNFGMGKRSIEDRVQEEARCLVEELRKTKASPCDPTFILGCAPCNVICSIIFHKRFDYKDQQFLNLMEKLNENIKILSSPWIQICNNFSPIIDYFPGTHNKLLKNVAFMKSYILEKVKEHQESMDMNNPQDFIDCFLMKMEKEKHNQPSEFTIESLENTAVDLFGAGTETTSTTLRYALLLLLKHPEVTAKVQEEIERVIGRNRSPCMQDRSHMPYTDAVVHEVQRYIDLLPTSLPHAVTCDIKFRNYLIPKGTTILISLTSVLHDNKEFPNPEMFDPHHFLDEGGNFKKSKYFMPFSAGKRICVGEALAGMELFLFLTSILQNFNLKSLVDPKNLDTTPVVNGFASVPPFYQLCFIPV
Experimental: as §1

[4] = molecular target: CYP2D6 (Homo sapiens, UniProt P10635); test: Cytochrome P450 inhibition assay; assay type: in vitro ADME
CYP2D6, sequence (P10635 whole entry): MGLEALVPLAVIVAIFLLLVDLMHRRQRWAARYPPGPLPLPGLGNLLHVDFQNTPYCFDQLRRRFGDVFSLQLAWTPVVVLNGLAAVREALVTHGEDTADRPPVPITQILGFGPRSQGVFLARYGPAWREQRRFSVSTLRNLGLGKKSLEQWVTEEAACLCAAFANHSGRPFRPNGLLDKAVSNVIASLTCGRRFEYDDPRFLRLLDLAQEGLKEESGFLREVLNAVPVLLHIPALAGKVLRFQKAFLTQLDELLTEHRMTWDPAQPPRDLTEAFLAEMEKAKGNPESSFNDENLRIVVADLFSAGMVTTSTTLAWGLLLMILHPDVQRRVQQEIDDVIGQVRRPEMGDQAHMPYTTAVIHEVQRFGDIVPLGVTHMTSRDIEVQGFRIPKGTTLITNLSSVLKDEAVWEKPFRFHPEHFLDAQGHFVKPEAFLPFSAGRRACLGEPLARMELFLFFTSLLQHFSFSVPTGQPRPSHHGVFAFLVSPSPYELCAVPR
Experimental: as §1

[5] = molecular target: CYP3A4 (Homo sapiens, UniProt P08684); test: Cytochrome P450 inhibition assay; assay type: in vitro ADME
CYP3A4, sequence (P08684 whole entry): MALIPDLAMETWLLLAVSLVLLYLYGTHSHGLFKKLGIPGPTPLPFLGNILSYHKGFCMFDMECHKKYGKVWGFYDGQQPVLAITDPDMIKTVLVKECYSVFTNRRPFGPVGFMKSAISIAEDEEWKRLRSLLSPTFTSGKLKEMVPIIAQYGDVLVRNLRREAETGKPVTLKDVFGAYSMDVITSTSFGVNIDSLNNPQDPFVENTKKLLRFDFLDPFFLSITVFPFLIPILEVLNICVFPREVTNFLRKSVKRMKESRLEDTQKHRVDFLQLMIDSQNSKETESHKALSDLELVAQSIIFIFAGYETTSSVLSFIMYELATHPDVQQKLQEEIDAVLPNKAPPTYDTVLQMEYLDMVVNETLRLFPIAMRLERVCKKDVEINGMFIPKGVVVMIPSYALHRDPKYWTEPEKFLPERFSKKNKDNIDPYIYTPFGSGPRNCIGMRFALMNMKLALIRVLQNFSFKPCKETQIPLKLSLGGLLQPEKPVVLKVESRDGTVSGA
Experimental: as §1

[6] = system: PC-3 xenograft; test: PC-3 prostate cancer xenograft model; assay type: in vivo, mice; details: 5, 10 and 15 mg/kg i.p. q.o.d., FIG. 9
Experimental: CX-3543 was tested against a number of cancer xenograft models to determine the in vivo efficacy. HCT-116 and PC-3 tumor-bearing nu/nu or MiaPaCa tumor-bearing SCID mice were administered reference and testing compounds on schedules indicated in figure legends. Tumor measurements were taken with calipers every other day or twice a week starting from the first day of dosing and body weights were measured at the same time points. Tumor volumes were calculated from the standard formula, W^2×L/2. c-MYC mRNA expression was measured with QPCR from all tumor samples following the final dose. 18S ribosomal RNA was used as a housekeeper and also quantified with QPCR.

[7] = Pharmacokinetic study in mice, intravenous; assay type: in vivo; details: 25 mg/kg intravenous
Source text: Pharmacokinetic studies for evaluating pharmacokinetic properties of compounds are designed as follows. Male animals (mouse, Balb/c or rat, SD) aged five to six weeks and/or rats weighing more than 200 grams will be used for testing. One group will be untreated and samples taken to be used as a base line. The other three groups will be treated and administered a single dose of compounds by intravenous injection.
Dosing Procedure. Compounds will be administered via IV (lateral tail vein), IP or PO. Animals will be dosed in a systematic order that distributes the time of dosing similarly across all groups. For IP and PO dosing, animals will be manually restrained. For IV bolus dosing or short term IV infusion (one minute), animals will be mechanically restrained but not sedated. Disposable sterile syringes will be used for each animal/dose.
Approximately 0.5 ml of blood will be collected from the naive animals via cardiac puncture prior to the first dose. Terminal blood samples (0.5 ml) will be collected via cardiac puncture from two animals per group per time point according to the above chart. All samples will be placed in tubes containing lithium heparin as anticoagulant and mixed immediately by inverting. They will be centrifuged and the plasma flash frozen in liquid nitrogen, stored at −70° C. or greater and analyzed for drug levels.
A pharmacokinetic study to determine the time course of CX-3543 disposition was conducted in mice following intravenous administered of 25 mg/kg of CX-3543. Regular sampling was undertaken throughout a 24 hour period after IV dose administration, and the key derived pharmacokinetic parameters were derived. FIG. 11 provides the graphical representation of the pharmacokinetic profile of CX-3543 from which key parameters (Table 11) were obtained.
In FIG. 11, Cmax is the maximum CX-3543 plasma concentration attained (expressed in ng/ml); AUC0-inf is the area under the CX-3543 plasma concentration versus time curve, extrapolated from time zero to infinity (expressed in ng.hr/ml); T1/2 is the terminal half life of CX-3543 (expressed in hr); Vdss is the volume of distribution of CX-3543 at steady state (expressed in L/kg); and ClS is the systemic clearance of CX-3543 (expressed in L/hr/kg).

[8] = male, Balb/c, mouse, plasma, iv, 25 mg/kg

CYP1A2, sequence (P05177 whole entry): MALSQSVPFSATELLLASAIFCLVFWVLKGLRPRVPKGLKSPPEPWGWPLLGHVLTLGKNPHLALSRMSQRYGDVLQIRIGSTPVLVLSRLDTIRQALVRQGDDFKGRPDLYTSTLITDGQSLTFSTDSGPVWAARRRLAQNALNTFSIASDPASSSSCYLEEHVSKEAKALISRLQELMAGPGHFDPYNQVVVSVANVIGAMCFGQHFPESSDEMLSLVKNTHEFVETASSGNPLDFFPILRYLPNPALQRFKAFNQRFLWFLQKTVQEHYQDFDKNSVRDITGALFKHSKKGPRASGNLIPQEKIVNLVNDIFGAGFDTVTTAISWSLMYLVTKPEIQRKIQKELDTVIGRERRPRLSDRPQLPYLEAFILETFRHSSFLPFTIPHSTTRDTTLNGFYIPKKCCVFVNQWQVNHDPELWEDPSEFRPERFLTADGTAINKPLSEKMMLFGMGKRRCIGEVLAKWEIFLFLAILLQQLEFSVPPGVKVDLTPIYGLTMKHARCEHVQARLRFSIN

CN1CCCC1CCNC(=O)c1cn2c3c(c(N4CCC(c5cnccn5)C4)c(F)cc3c1=O)Oc1cc3ccccc3cc1-2 (stereo not drawn) [CX-3543]
inhibition of CYP1A2 [1]: No significant inhibition | inhibition of CYP2C19 [2]: No significant inhibition | inhibition of CYP2C9 [3]: No significant inhibition | pIC50 ([3]; isoform 2C9, substrate Diclofenac): < 5.00 | inhibition of CYP2D6 [4]: No significant inhibition | pIC50 ([4]; isoform 2D6, substrate Dextromethorphan): < 4.60 | range in which only minor and partial inhibition of CYP3A4 was evident [5]: 1 to 3 µM | pIC50 ([5]; isoform 3A4, substrate Midazolam): 5.85 | pIC50 ([5]; isoform 3A4, substrate Testosterone): 5.48 | tumor growth inhibition [6]: inhibits tumor growth; also recorded: significant tumor growth inhibition | ClS [7]: 1.23 L/h/kg | Vd ([7]; male, Balb/c, mouse, plasma, read-out: Vdss): 7.26 L/kg | AUC(0-inf) [7, 8]: ~20.3 µg·h/mL | Cmax [7, 8]: ~5.35 µg/mL | half-life [7, 8]: ~4.6 h
